According to ChEMBL document CHEMBL4334483, “STING modulators: Predictive significance in drug discovery” (Eur J Med Chem, 2019):
Values belong to the compound of their own block, whether it stands above or below them.

Legend:
[1] = biological target: Stimulator of interferon genes protein (Homo sapiens, UniProt Q86WV6); assay: Induction of STING in human PBMC assessed as increase in IFNbeta secretion
[2] = biological target: T1, Serine/threonine-protein kinase TBK1 (Homo sapiens, UniProt Q9UHD2); assay: Induction of TBK1 in human PBMC assessed as increase in […]
T1 sequence (Q9UHD2 whole entry): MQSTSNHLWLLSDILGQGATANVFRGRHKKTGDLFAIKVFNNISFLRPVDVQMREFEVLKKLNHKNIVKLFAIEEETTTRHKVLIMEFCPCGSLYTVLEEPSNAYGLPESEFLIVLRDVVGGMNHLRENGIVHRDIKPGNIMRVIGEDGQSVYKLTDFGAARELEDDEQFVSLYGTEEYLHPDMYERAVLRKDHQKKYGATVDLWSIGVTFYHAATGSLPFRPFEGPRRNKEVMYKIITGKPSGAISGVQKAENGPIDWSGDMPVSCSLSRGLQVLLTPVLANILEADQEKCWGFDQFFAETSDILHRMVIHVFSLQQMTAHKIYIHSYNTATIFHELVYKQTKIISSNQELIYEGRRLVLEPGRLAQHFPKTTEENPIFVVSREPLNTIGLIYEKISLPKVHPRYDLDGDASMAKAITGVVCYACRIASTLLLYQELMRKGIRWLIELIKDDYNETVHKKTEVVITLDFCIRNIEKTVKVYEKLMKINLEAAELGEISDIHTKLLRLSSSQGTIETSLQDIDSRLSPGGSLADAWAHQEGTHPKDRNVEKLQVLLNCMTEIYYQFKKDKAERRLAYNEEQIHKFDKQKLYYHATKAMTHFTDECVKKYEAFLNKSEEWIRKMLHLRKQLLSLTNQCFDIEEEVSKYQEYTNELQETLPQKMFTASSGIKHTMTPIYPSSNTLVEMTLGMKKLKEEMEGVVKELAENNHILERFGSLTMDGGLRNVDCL

[3] = Inhibition of STING R232 mutant in mouse MEF cells assessed as increase in IFNbeta secretion
Homo sapiens = organism: Homo sapiens; assay: Selectivity index, ratio of EC50(app) for TBK1 in human PBMC […] in human PBMC

Sequence of Stimulator of interferon genes protein (Q86WV6 whole entry): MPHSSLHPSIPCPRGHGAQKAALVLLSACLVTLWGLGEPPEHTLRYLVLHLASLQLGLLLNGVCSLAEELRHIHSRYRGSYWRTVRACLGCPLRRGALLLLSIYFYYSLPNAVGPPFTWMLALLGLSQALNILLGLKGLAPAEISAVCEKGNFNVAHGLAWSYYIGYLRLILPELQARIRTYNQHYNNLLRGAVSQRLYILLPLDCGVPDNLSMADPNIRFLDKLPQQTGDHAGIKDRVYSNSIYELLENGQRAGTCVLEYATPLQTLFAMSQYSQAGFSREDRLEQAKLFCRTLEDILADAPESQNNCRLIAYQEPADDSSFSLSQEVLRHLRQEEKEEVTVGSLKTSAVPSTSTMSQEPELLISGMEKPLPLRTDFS

- EC50 [1]: 3.1 µM
- EC50 [2]: 53.9 µM
SMILES: CCn1nc(C)cc1C(=O)Nc1nc2cc(C(N)=O)ccc2n1CCCCn1c(NC(=O)c2cc(C)nn2CC)nc2cc(C(N)=O)ccc21

SMILES: CC[C@@H]1NC(=O)[C@@H]2[C@H](Cl)[C@H](Cl)CN2C(=O)[C@H](CC)NC(=O)C[C@H](c2ccccc2)NC(=O)[C@H](CO)NC1=O
- IC50 [3]: 3.42 µM

- Ratio EC50 (Homo sapiens): 18
SMILES: CCn1nc(C)cc1C(=O)/N=c1\[nH]c2cc(C(N)=O)ccc2n1CCCCn1/c(=N/C(=O)c2cc(C)nn2CC)[nH]c2cc(C(N)=O)ccc21
